Source: patent US11613527B2, “Enzyme inhibitors” (KalVista Pharmaceuticals Limited, priority 2019, dated 2023)
pIC50: −log10 of the molar value. Converted amounts (≈) assume the structure as drawn.

Assays:
[1] = Solubility after 24 hrs in Fasted State Simulated Intestinal Fluid (FaSSIF); type: physicochemical; conditions: Fasted State Simulated Intestinal Fluid (FaSSIF), thermodynamic from solid, 24 hrs at 37° C., nominal concentration 1 mg/mL (as free base)
Method in brief: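 Compound at nominal 1 mg/mL (as free base) in freshly prepared FaSSIF, shaken 24 h at 37 °C, ~500 rpm. After centrifugation at 15,000 g for 10 min at 37 °C, dissolved concentration measured by LCMS.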

Human FXIa = Human FXIa (Homo sapiens (Human), UniProt P03951); assay: Determination of the % inhibition for FXIa (fluorogenic substrate Z-Gly-Pro-Arg-AFC; 40 μM or IC50); type: biochemical
Chain of Human FXIa (P03951 388-625): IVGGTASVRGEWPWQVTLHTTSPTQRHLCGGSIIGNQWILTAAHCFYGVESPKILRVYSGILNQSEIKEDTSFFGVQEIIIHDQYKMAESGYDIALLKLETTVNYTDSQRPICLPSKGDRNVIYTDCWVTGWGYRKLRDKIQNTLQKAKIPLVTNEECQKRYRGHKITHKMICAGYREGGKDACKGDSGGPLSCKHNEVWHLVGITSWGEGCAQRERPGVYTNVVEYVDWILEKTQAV
Chain of Human FXIa (P03951 19-387 partner): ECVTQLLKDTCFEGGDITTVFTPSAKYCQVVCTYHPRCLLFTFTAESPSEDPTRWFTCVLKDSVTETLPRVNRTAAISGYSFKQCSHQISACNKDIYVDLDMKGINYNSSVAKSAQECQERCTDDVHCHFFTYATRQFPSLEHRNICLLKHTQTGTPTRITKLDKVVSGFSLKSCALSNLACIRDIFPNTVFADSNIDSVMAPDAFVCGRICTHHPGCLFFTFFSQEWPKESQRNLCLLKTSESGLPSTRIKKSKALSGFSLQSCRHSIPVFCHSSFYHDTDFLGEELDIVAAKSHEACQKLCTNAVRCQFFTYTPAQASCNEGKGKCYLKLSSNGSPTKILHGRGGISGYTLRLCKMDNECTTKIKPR
Method in brief: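 Human FXIa incubated at 25 °C with fluorogenic substrate Z-Gly-Pro-Arg-AFC and test compound at 40 μM for % inhibition, or a concentration series for IC50. Residual activity taken as initial rate from absorbance change at 410 nm.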

[2] = Pharmacokinetics following a single oral dose in male Sprague-Dawley rats; type: in vivo; conditions: rat, nominal 5 mg/kg in 10% DMSO/10% cremophor/80% SWFI, plasma
Description: Pharmacokinetic studies of the compounds in Table 14 were performed to assess the pharmacokinetics following a single oral dose in male Sprague-Dawley rats. Two rats were given a single po dose of 5 mL/kg of a nominal 1 mg/mL (5 mg/kg) composition of test compound in 10% DMSO/10% cremophor/80% SWFI vehicle. Following dosing, blood samples were collected over a period of […]. Sample times were 5, 15 and 30 minutes then 1, 2, 4, 6, 8 and 12 hours. Following collection, blood samples were centrifuged and the plasma fraction analysed for concentration of test compound by LCMS.

Human plasma kallikrein = Human plasma kallikrein (Homo sapiens (Human), UniProt P03952); assay: Determination of the IC50 for plasma kallikrein (fluorogenic substrate H-DPro-Phe-Arg-AFC); type: biochemical; conditions: class symbols A-D, read-out: IC50 (human PKal)
Chain of Human plasma kallikrein (P03952 391-638): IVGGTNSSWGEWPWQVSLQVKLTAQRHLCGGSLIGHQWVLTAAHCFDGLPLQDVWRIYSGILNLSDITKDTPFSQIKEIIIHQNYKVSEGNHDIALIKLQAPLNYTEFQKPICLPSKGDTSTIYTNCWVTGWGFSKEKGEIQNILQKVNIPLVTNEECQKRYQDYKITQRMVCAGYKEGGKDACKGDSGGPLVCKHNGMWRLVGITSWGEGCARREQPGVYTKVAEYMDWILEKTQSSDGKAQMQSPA
Chain of Human plasma kallikrein (P03952 20-390 partner): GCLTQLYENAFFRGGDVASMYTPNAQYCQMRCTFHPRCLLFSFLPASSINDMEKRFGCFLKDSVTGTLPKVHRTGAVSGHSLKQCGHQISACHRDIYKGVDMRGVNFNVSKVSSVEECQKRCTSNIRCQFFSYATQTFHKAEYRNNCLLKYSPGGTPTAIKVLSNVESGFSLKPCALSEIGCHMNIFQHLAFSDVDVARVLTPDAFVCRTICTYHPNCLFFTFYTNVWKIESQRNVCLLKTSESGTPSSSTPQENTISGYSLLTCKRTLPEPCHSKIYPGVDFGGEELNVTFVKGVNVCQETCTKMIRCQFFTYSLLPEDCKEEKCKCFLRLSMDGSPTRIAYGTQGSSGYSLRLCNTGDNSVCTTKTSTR
Method in brief: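 Enzyme from a commercial source was incubated at 25° C. with H-DPro-Phe-Arg-AFC substrate and a range of test compound concentrations. Residual activity was taken as the initial reaction rate, followed by absorbance change at 410 nm, and IC50 values were derived from it.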

Human KLK1 = Human KLK1 (Homo sapiens (Human), UniProt P06870); assay: Determination of the IC50 for KLK1 (fluorogenic substrate H-DVal-Leu-Arg-AFC); type: biochemical
Chain of Human KLK1 (P06870 25-262): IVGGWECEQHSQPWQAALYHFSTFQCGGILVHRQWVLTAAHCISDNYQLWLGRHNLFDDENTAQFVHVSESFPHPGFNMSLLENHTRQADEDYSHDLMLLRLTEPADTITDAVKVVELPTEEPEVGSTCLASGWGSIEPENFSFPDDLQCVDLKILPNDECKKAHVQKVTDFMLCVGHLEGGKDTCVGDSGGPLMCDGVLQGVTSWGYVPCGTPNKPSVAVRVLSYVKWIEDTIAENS
Method in brief: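 Human KLK1 incubated at 25° C. with fluorogenic substrate H-DVal-Leu-Arg-AFC and a range of test compound concentrations. Residual activity taken as initial reaction rate from absorbance change at 410 nm; IC50 derived from these rates.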

| solubility at 24 h [1] [µg/mL] | pIC50 (Human FXIa) | Cmax [2] [ng/mL] | pIC50 (Human plasma kallikrein) | pIC50 (Human KLK1) | Structure (SMILES) |
| --- | --- | --- | --- | --- | --- |
| 880 (≈ 1570 µM) | < 4.40 | 63 | > 8.00 | < 4.40 | COCc1nn(Cc2ccc3c(c2)CN(C)CC32CC2)cc1C(=O)NCc1c(-n2cc(C)nn2)ccc(OC)c1F [Example 126, N-{[2-fluoro-3-methoxy-6-(4-methyl-1,2,3-triazol-1-yl)phenyl]methyl}-3-(methoxymethyl)-1-{2′-methyl-1′,3′-dihydrospiro[cyclopropane-1,4′-isoquinoline]-7′-ylmethyl}pyrazole-4-carboxamide] |
| > 1000 | < 4.40 | 38 | > 8.00 | < 4.40 | COCc1nn(Cc2ccc3c(c2)CCN(C(C)C)C3)cc1C(=O)NCc1c(-n2cc(C)nn2)ccc(OC)c1F [Example 37, N-{[2-fluoro-3-methoxy-6-(4-methyl-1,2,3-triazol-1-yl)phenyl]methyl}-1-[(2-isopropyl-3,4-dihydro-1H-isoquinolin-6-yl)methyl]-3-(methoxymethyl)pyrazole-4-carboxamide] |
| 810 (≈ 1480 µM) | < 4.40 | 9 | > 8.00 | < 4.40 | COCc1nn(Cc2ccc3c(c2)CNCC32CC2)cc1C(=O)NCc1c(-n2cc(C)nn2)ccc(OC)c1F [Example 127, 1-{2′,3′-dihydro-1′H-spiro[cyclopropane-1,4′-isoquinoline]-7′-ylmethyl}-N-{[2-fluoro-3-methoxy-6-(4-methyl-1,2,3-triazol-1-yl)phenyl]methyl}-3-(methoxymethyl)pyrazole-4-carboxamide] |
| 740 (≈ 1350 µM) | < 4.40 | 51 | > 8.00 | < 4.40 | CCN1CCc2cc(Cn3cc(C(=O)NCc4c(-n5cc(C)nn5)ccc(OC)c4F)c(COC)n3)ccc2C1 [Example 38, 1-[(2-ethyl-3,4-dihydro-1H-isoquinolin-6-yl)methyl]-N-{[2-fluoro-3-methoxy-6-(4-methyl-1,2,3-triazol-1-yl)phenyl]methyl}-3-(methoxymethyl)pyrazole-4-carboxamide] |
| 820 (≈ 1580 µM) | < 5.40 | 154 | > 8.00 | < 5.40 | COCc1nn(Cc2ccc3c(c2)CN(C)C3)cc1C(=O)NCc1c(-n2cc(C)nn2)ccc(OC)c1F [Example 54, N-{[2-fluoro-3-methoxy-6-(4-methyl-1,2,3-triazol-1-yl)phenyl]methyl}-3-(methoxymethyl)-1-[(2-methyl-1,3-dihydroisoindol-5-yl)methyl]pyrazole-4-carboxamide] |
| 710 (≈ 1330 µM) | < 4.40 | 134 | > 8.00 | < 4.40 | COCc1nn(Cc2ccc3c(c2)CN(C)CC3)cc1C(=O)NCc1c(-n2cc(C)nn2)ccc(OC)c1F [Example 2, N-{[2-Fluoro-3-methoxy-6-(4-methyl-1,2,3-triazol-1-yl)phenyl]methyl}-3-(methoxymethyl)-1-[(2-methyl-3,4-dihydro-1H-isoquinolin-7-yl)methyl]pyrazole-4-carboxamide] |

Further lines, the compound ahead of its results:

| Structure (SMILES) | solubility at 24 h [1] [µg/mL] | pIC50 (Human FXIa) | Cmax [2] [ng/mL] | pIC50 (Human plasma kallikrein) | pIC50 (Human KLK1) |
| --- | --- | --- | --- | --- | --- |
| COCc1nn(Cc2ccc3c(c2)CCN(C(C)C)C3)cc1C(=O)NCc1c(-n2ccc(C#N)n2)ccc(OC)c1F [Example 46, N-{[6-(3-cyanopyrazol-1-yl)-2-fluoro-3-methoxyphenyl]methyl}-1-[(2-isopropyl-3,4-dihydro-1H-isoquinolin-6-yl)methyl]-3-(methoxymethyl)pyrazole-4-carboxamide] | > 1000 | < 4.40 | 34 | > 8.00 | < 4.40 |
| COCc1nn(Cc2ccc3c(c2)CN(C)CC3)cc1C(=O)NCc1c(-n2cc(C(F)F)nn2)ccc(OC)c1F [Example 1, N-({6-[4-(difluoromethyl)-1,2,3-triazol-1-yl]-2-fluoro-3-methoxyphenyl}methyl)-3-(methoxymethyl)-1-[(2-methyl-3,4-dihydro-1H-isoquinolin-7-yl)methyl]pyrazole-4-carboxamide] | 930 (≈ 1630 µM) | < 4.40 | 88 | > 8.00 | < 4.40 |
| COCc1nn(Cc2ccc3c(c2)CN(C)CC3)cc1C(=O)NCc1c(-n2cnc(C(F)(F)F)n2)ccc(OC)c1F [Example 13, N-({2-fluoro-3-methoxy-6-[3-(trifluoromethyl)-1,2,4-triazol-1-yl]phenyl}methyl)-3-(methoxymethyl)-1-[(2-methyl-3,4-dihydro-1H-isoquinolin-7-yl)methyl]pyrazole-4-carboxamide] | 860 (≈ 1460 µM) | < 4.40 | 88 | > 8.00 | < 4.40 |
| COCc1nn(Cc2ccc3c(c2)CN(C(C)C)CC3)cc1C(=O)NCc1c(-n2cnc(C(F)F)n2)ccc(OC)c1F [Example 23, N-({6-[3-(difluoromethyl)-1,2,4-triazol-1-yl]-2-fluoro-3-methoxyphenyl}methyl)-1-[(2-isopropyl-3,4-dihydro-1H-isoquinolin-7-yl)methyl]-3-(methoxymethyl)pyrazole-4-carboxamide] | 870 (≈ 1460 µM) | < 4.40 | 20 | > 8.00 | < 4.40 |
| COCc1nn(Cc2ccc3c(c2)CN(C)CC3)cc1C(=O)NCc1c(-n2cnc(C(F)F)n2)ccc(OC)c1F [Example 15, N-({6-[3-(difluoromethyl)-1,2,4-triazol-1-yl]-2-fluoro-3-methoxyphenyl}methyl)-3-(methoxymethyl)-1-[(2-methyl-3,4-dihydro-1H-isoquinolin-7-yl)methyl]pyrazole-4-carboxamide] | > 1000 | < 4.40 | 78 | > 8.00 | < 4.40 |
| COCc1nn(Cc2ccc3c(c2)CN(C(C)C)CC3)cc1C(=O)NCc1c(-n2ccc(C#N)n2)ccc(OC)c1F [Example 24, N-{[6-(3-cyanopyrazol-1-yl)-2-fluoro-3-methoxyphenyl]methyl}-1-[(2-isopropyl-3,4-dihydro-1H-isoquinolin-7-yl)methyl]-3-(methoxymethyl)pyrazole-4-carboxamide] | 730 (≈ 1280 µM) | 4.62 | 24 | > 8.00 | < 4.40 |
